Measured values reported in patent publication US20230346827A1 (priority 2020, published 2023).

Test system: rats subjected to sTBI
Experiment: sTBI rats, LMW-DS 1, 5, 15 mg/kg s.c. 30 min post-TBI: HPLC of brain energy metabolites, antioxidants, oxidative/nitrosative stress biomarkers (Example 4)
Assay type: in vivo, rat
Conditions: for ATP/ADP / NAD+/NADH: adimensional ratio
Protocol: Male Wistar rats (n=160) of 300-350 g body weight were used in this study. They were fed with standard laboratory diet and water ad libitum in a controlled environment.
As the accepted anesthetic mixture, animals received 35 mg/kg b.w. ketamine and 0.25 mg/kg body weight midazolam by intramuscular injection. Diffuse sTBI was induced according to the “weight drop” impact acceleration model set up by Marmarou et al. J. Neurosurg. 1994, 80: 291-300. This model causes diffuse axonal injury and it is able to reproduce the physical and mechanical characteristics of the diffuse TBI in humans.
Severe TBI was induced by dropping a 450 g weight from 2 meters height onto the rat head protected by a helmet (metal disk previously fixed on the skull using dental cement) in order to uniformly distribute the mechanical force to the brain. Rats were placed prone on a bed of specific polyurethane foam inserted in a special container; this foam dissipates the major part of the potential energy (deriving from the mechanical forces) and prevents any rebound of the animal after the impact that could produce spinal damages.
After 2 or 7 days from TBI induction, rats were anesthetized again and then immediately sacrificed. These time points are coincident with the worst biochemical derangement (2 days) or, in the case of a mildly injured brain, with a full metabolic recovery (7 days).
The drug treatment consisted in a subcutaneous injection of 0.5 ml of LMW-DS (ILB®, Tikomed, Viken, Sweden, WO 2016/076780) and administered at 3 different concentrations (1, 5 and 15 mg/kg body weight), according to the schematic protocol described below. Sham-operated animals underwent the same procedure of anesthesia but TBI and were used as the control group.
Rats subjected to sTBI and receiving a single administration of LMW-DS after 30 minutes post-TBI, with sacrifice at 2 days post-TBI. Animals were divided in the following subgroups: • 1. 12 animals subjected to sTBI and treated with 1 mg/kg b.w. LMW-DS • 2. 12 animals subjected to sTBI and treated with 5 mg/kg b.w. LMW-DS • 3. 12 animals subjected to sTBI and treated with 15 mg/kg b.w. LMW-DS
Rats subjected to sTBI and receiving a single administration of LMW-DS after 30 minutes post-TBI, with sacrifice at 7 days post-TBI. Animals were divided in the following subgroups: • 1. 12 animals subjected to sTBI and treated with 1 mg/kg b.w. LMW-DS • 2. 12 animals subjected to sTBI and treated with 5 mg/kg b.w. LMW-DS • 3. 12 animals subjected to sTBI and treated with 15 mg/kg b.w. LMW-DS
Rats (n = 12) subjected to sTBI and receiving repeated administrations of the maximal dose of LMW-DS (15 mg/kg b.w.) after 30 minutes, 3 days and 5 days post-TBI, with sacrifice at 7 days post-TBI. Four additional rats were used for the histo-morphological studies. Total rats in this group: n=16
To minimize metabolite loss, an in vivo craniectomy was performed in all animals during anesthesia. The rat skull was carefully removed, the brain was exposed, sharply cut along the sagittal fissure and the two hemispheres were separated. The hemispheres dedicated to biochemical analyses were freeze-clamped by aluminum tongues pre-cooled in liquid nitrogen and then immersed in liquid nitrogen. The freeze-clamping procedure was introduced to accelerate freezing of the tissue, thus minimizing potential metabolite loss.
Tissue homogenization for metabolite analyses was effected as described below. After the wet weight (w.w.) determination, the frozen hemispheres were placed into 7 ml of ice-cold, nitrogen-saturated, precipitating solution (1:10 w/v) composed by CH3CN + 10 mM KH2PO4, pH 7.40, (3:1; v:v), and the homogenization was performed using an Ultra-Turrax homogenizer set at 24,000 rpm/min (Janke & Kunkel, Staufen, Germany). […]

[1] = 15 mg/kg repeated, 7 d post-sTBI

sodium salt of dextran sulfate [LMW-DS]
Malonyl-CoA (5 mg/kg, 7 d post-sTBI): 6.02 ± 1.09 nmol/g w.w. | NADH (5 mg/kg, 7 d post-sTBI): 8.83 ± 1.26 nmol/g w.w. | NADPH (5 mg/kg, 7 d post-sTBI): 12.30 ± 2.86 nmol/g w.w. | NADP^+ (5 mg/kg, 7 d post-sTBI): 24.45 ± 8.97 nmol/g w.w. | NAD^+ (5 mg/kg, 7 d post-sTBI): 293.36 ± 41.55 nmol/g w.w. | NO2 (5 mg/kg, 7 d post-sTBI): 59.61 ± 12.91 nmol/g w.w. | NO3 (5 mg/kg, 7 d post-sTBI): 234.45 ± 40.05 nmol/g w.w. | UDP (5 mg/kg, 7 d post-sTBI): 44.19 ± 6.22 nmol/g w.w. | UDP-Gal (5 mg/kg, 7 d post-sTBI): 132.66 ± 9.12 nmol/g w.w. | UDP-GalNac (5 mg/kg, 7 d post-sTBI): 17.37 ± 4.98 nmol/g w.w. | UDP-Glc (5 mg/kg, 7 d post-sTBI): 58.10 ± 11.81 nmol/g w.w. | UDP-GlcNac (5 mg/kg, 7 d post-sTBI): 85.14 ± 29.45 nmol/g w.w. | UMP (5 mg/kg, 7 d post-sTBI): 167.18 ± 32.39 nmol/g w.w. | URACIL (5 mg/kg, 7 d post-sTBI): 18.34 ± 3.77 nmol/g w.w. | URIC ACID (5 mg/kg, 7 d post-sTBI): 17.26 ± 4.11 nmol/g w.w. | URIDINE (5 mg/kg, 7 d post-sTBI): 134.60 ± 31.89 nmol/g w.w. | UTP (5 mg/kg, 7 d post-sTBI): 175.02 ± 30.65 nmol/g w.w. | XANTHINE (5 mg/kg, 7 d post-sTBI): 14.33 ± 4.05 nmol/g w.w. | β-PSEUDOURIDINE (5 mg/kg, 7 d post-sTBI): 17.51 ± 3.25 nmol/g w.w. | ATP/ADP (5 mg/kg, 7 d post-sTBI): 6.28 ± 0.80 | NAD+/NADH (5 mg/kg, 7 d post-sTBI): 33.90 ± 7.19 | ADENOSINE [1]: 40.84 ± 30.25 nmol/g w.w. | ADP [1]: 260.32 ± 34.67 nmol/g w.w. | ADP-Ribose [1]: 13.23 ± 3.32 nmol/g w.w. | AMP [1]: 43.12 ± 3.39 nmol/g w.w. | ASCORBIC ACID [1]: 2617.09 ± 315.18 nmol/g w.w. | ATP [1]: 1971.17 ± 158.57 nmol/g w.w. | Acetyl-CoA [1]: 37.91 ± 6.46 nmol/g w.w. | CDP choline [1]: 11.72 ± 3.76 nmol/g w.w. | CMP [1]: 31.21 ± 13.28 nmol/g w.w. | CREATININE [1]: 9.07 ± 1.60 nmol/g w.w. | CTP [1]: 92.67 ± 16.27 nmol/g w.w. | CYTIDINE [1]: 72.85 ± 25.63 nmol/g w.w. | CYTOSINE [1]: 8.76 ± 1.88 nmol/g w.w. | CoA-SH [1]: 45.76 ± 5.87 nmol/g w.w. | GDP [1]: 109.06 ± 12.46 nmol/g w.w. | GDP Glucose [1]: 106.42 ± 12.45 nmol/g w.w. | GMP [1]: 61.86 ± 29.28 nmol/g w.w. | GSH [1]: 2342.03 ± 308.72 nmol/g w.w. | GTP [1]: 466.06 ± 42.38 nmol/g w.w. | GUANINE [1]: 3.32 ± 1.41 nmol/g w.w. | GUANOSINE [1]: 19.66 ± 4.10 nmol/g w.w. | HYPOXANTHINE [1]: 4.10 ± 1.19 nmol/g w.w. | IMP [1]: 141.84 ± 36.32 nmol/g w.w. | INOSINE [1]: 139.26 ± 15.62 nmol/g w.w. | MDA [1]: 4.09 ± 0.67 nmol/g w.w. | Malonyl-CoA [1]: 12.56 ± 2.27 nmol/g w.w. | NADH [1]: 11.05 ± 1.52 nmol/g w.w. | NADPH [1]: 11.21 ± 2.60 nmol/g w.w. | NADP^+ [1]: 16.56 ± 6.08 nmol/g w.w. | NAD^+ [1]: 401.73 ± 56.89 nmol/g w.w. | NO2 [1]: 130.69 ± 28.31 nmol/g w.w. | NO3 [1]: 271.69 ± 46.41 nmol/g w.w. | UDP [1]: 37.12 ± 5.22 nmol/g w.w. | UDP-Gal [1]: 135.15 ± 9.29 nmol/g w.w. | UDP-GalNac [1]: 16.50 ± 4.73 nmol/g w.w. | UDP-Glc [1]: 61.37 ± 12.47 nmol/g w.w. | UDP-GlcNac [1]: 86.42 ± 29.89 nmol/g w.w. | UMP [1]: 107.66 ± 20.86 nmol/g w.w. | URACIL [1]: 24.13 ± 4.96 nmol/g w.w. | URIC ACID [1]: 7.80 ± 1.86 nmol/g w.w. | URIDINE [1]: 97.21 ± 23.03 nmol/g w.w. | UTP [1]: 133.72 ± 23.42 nmol/g w.w. | XANTHINE [1]: 11.24 ± 3.18 nmol/g w.w. | β-PSEUDOURIDINE [1]: 16.72 ± 3.10 nmol/g w.w. | ATP/ADP [1]: 7.67 ± 0.97 | NAD+/NADH [1]: 37.47 ± 9.46 | ADENOSINE (15 mg/kg, 2 d post-sTBI): 53.25 ± 12.75 nmol/g w.w. | ADP (15 mg/kg, 2 d post-sTBI): 346.37 ± 29.79 nmol/g w.w. | ADP-Ribose (15 mg/kg, 2 d post-sTBI): 23.06 ± 4.63 nmol/g w.w. | AMP (15 mg/kg, 2 d post-sTBI): 66.26 ± 10.74 nmol/g w.w. | ASCORBIC ACID (15 mg/kg, 2 d post-sTBI): 2783.04 ± 160.17 nmol/g w.w. | ATP (15 mg/kg, 2 d post-sTBI): 1556.54 ± 91.20 nmol/g w.w. | Acetyl-CoA (15 mg/kg, 2 d post-sTBI): 32.38 ± 3.77 nmol/g w.w. | CDP choline (15 mg/kg, 2 d post-sTBI): 7.07 ± 1.05 nmol/g w.w. | CMP (15 mg/kg, 2 d post-sTBI): 25.61 ± 5.23 nmol/g w.w. | CREATININE (15 mg/kg, 2 d post-sTBI): 11.77 ± 2.19 nmol/g w.w. | CTP (15 mg/kg, 2 d post-sTBI): 37.53 ± 7.59 nmol/g w.w. | CYTIDINE (15 mg/kg, 2 d post-sTBI): 11.46 ± 2.07 nmol/g w.w. | CYTOSINE (15 mg/kg, 2 d post-sTBI): 13.57 ± 1.66 nmol/g w.w. | CoA-SH (15 mg/kg, 2 d post-sTBI): 9.35 ± 1.03 nmol/g w.w.
